{"source": "paper PMC5847048", "about": "(Psychopharmacology, 2017)", "key": {"[1]": {"system": "aged mice (22–24 months old)", "parameters": "method as in Marighetto et al., [2008b]", "settings": "ref Marighetto et al., [2008b], cited from earlier work"}, "[2]": {"system": "aged mice (22–24 months old)", "assay": "Radial maze working memory task", "type": "in vivo, mouse", "settings": "donepezil 0.3 mg/kg s.c.; aged mice", "protocol": "In the radial arm maze task, treatments were administered subcutaneously (s.c.) once a day 60 min prior to testing from the 2 days of habituation to the 12 days of memory testing.\nThe radial maze (Imetronic system, Pessac, France) was fully automated and enabled by video-tracking automatic testing and recording. Briefly, each mouse was separately assigned to six adjacent arms which were grouped into three pairs (A, B, C). These three pairs were presented repeatedly among the successive trials of each testing session. The location of the food reward varied in each pair according to an alternation rule among successive trials. Namely, among the two arms opened in a specific trial, the food was inserted in the arm which was not visited in the previous trial within the same pair. The mouse must therefore remember which of the two arms was visited in a specific trial until next presentation of the same pair, and so on in order to alternate its choice among successive presentations of any pair. At the beginning of each daily session, the mouse was placed in the central platform of the radial maze with all arms closed. One pair of arms only was opened at the beginning of each trial, and the mouse was required to visit one arm. The door of the non-chosen arm was closed as soon as the mouse reached the end of the chosen arm. The mouse was allowed to run back to the central platform of his own accord, and then, the door of the chosen arm was closed. The mouse remained in the central platform until the following trial (intertrial interval 10 s). Since three pairs were concurrently used, three specific arm visits must be kept in memory by the mouse until their utilization by using short-term working memory. After 2 days of free exploration in the maze (habituation), mice were submitted to 12 consecutive testing sessions: one session of 23 trials (3 “acquisition-only trials,” one by pair, and 20 “acquisition and test trials”) per day, i.e., a total of 276 trials (240 test trials).\nEach session consisted of alternate presentations of pairs A, B, and C. The first three trials with each pair were acquisition trials (both arms rewarded). Each of the following trials was at the same time an acquisition trial (for the following trial with the same pair) and a test trial (for the arm visit made during the preceding trial with the same pair); the rewarded arm was the one that has not been visited on the preceding trial with the same pair. Memory demand varied across successive trials according to the retention interval RI (i.e., the number of intervening trials with other pairs between two successive presentations of the same pair). The retention interval for one specific arm visit (e.g., within pair A) depends on the number of concurring trials (i.e., with pairs B and C) occurring till next trial with the same pair (A). Indeed, such a variable amount of interposed trials proportionally increases the delay between acquisition and test and may also generate retroactive interference. There are five levels of retention interval: from 0, corresponding to “no interposed pair,” to 4, corresponding to a sequence of four interposed trials between n-1 and n trials.\nDuring habituation, the time needed for visiting all six arms per session day was measured. During memory testing, memory performance was evaluated according to the percentage of correct alternation responses between successive trials with the same pair in three different manners."}, "[3]": {"system": "aged mice (18–19 months old)", "assay": "Sequential/spontaneous alternation (SA) working memory task in T-maze", "type": "in vivo, mouse", "settings": "donepezil 0.1 mg/kg p.o. alone, ITI 90 s, n = 12", "method": "(§1) Treatments were administered per os daily for nine consecutive days for studies involving the CSD and SA tasks. The 8th and the 9th oral administrations were given 60 min before acquisition and test phases in the CSD task, or before the training and the test sessions in the SA task.\nThe spontaneous alternation (SA) task was performed in independent groups of mice as regards to the CSD and radial maze tasks. The SA task allows investigation of aged-induced working memory impairments (Vandesquille et al. [2011]). In this task, mice are submitted to a series of successive choices in a T-maze. To alternate from trial to trial, animals have to remember at each choice (except the first one) only the previous trial and to reset the interfering information from trial to trial over a series. This resetting mechanism is a main aspect of working memory (Aggleton et al. [1986]; Béracochéa and Jaffard, [1987]; Kesner [2005]).\nBehavioral tests were conducted in a gray Plexiglas T-maze. Stem and arms are 35 cm long, 15 cm wide, and 10 cm high. The starting box (10 cm × 12 cm) and each goal arm are separated from the central alley by a vertical sliding door, with opening and closing monitored by a computer. Photoelectric cells allow recording of both the choice of the goal arm (left or right) and the latency (in seconds) that elapsed between the opening of the starting box and the closing of the goal box. The T-maze is located at the center of a room with various allocentric cues (white or black or striped card boards) located on the wall 1 m above the apparatus.\nAnimals were not food deprived, and no food reinforcement was used. Animals were first submitted to a habituation phase consisting of two free exploration sessions of 10 min each, over two consecutive days (one session per day) in the apparatus with all doors opened. At the end of the habituation phase, all animals were submitted to a training phase, involving a series of seven successive trials separated by a 30-s intertrial interval (ITI). The training phase was aimed at familiarizing the animals with the opening and closing of the doors.\nFor the training session, animals were submitted to a sequence of seven successive identical trials. At the beginning of a trial, mice were placed in the starting box and after a confinement period (30 s, predefined ITI), the door to the stem was opened. When the mouse entered one of the goal arms, the door was closed and the chosen arm was recorded. After a 30-s confinement period in the chosen arm, the mouse was gently returned to the starting box for a second trial, identical to the first one. To avoid olfactory cues in the apparatus, visible traces of urine were removed and the general procedure was implemented as in the training phase, except that the ITI was extended to 90 s and animals were submitted to a series of […] successive trials. […] Moreover, an 8th trial was added to the series which was separated from the 7th one by a 5-s ITI. […] The alternation score (in percentage) was used as an index of memory performance. An alternation is defined as a visit in a given arm followed by a visit into the other arm. The successive sequence of visits for the seven first trials determines the level of alternation. A percentage of alternation was calculated: number of alternations performed/number maximal of alternation. This percentage is calculated for each mouse.\nFor the sequential alternation task, mean and standard errors of the mean (SEM) were calculated for each group of treatment. In addition to % alternation drawn over the seven trials of the series, behavioral performances were also expressed in percentage of alternation drawn from blocks of two consecutive trials (block 1: trials 2 + 3; block 2: trials 4 + 5; block 3: trials 6 + 7). The analyses per trial blocks allowed evaluation of proactive interference over the series (Vandesquille et al. [2011], [2013]). Statistical analyses were performed using the Statview 5.0 software. […]"}, "[4]": {"system": "middle-aged mice (14–15 months old)", "assay": "Contextual serial discrimination (CSD) task", "type": "in vivo, mouse", "settings": "for Post hoc analysis of donepezil effect on SCM score for all S 47445 levels (Dunnett, versus vehicle group): all levels of S 47445 pooled", "method": "as §1\nThe studies were carried out on mice according to the procedure described in full by Celerier et al. ([2004]) and Tronche et al. ([2010]) (Fig.1). Briefly, the mouse learns two consecutive spatial discriminations (D1 and D2) in a four hole-board apparatus (45 × 45 × 30 cm) enclosed with gray Plexiglas walls. The floor of the hole-board was interchangeable (white and rough versus black and smooth). On the floor, four holes opening on a food cup (3-cm diameter × 2.5-cm depth) were located 6 cm away from the sidewalls. Photocells located into the holes allowed an automatic recording of the number of head-dips in each hole.\nFig. 1 a Contextual serial discrimination: at the acquisition phase, mice performed two consecutive spatial discrimination sessions varying by the color and texture of the floor, i.e., D1, discrimination 1, and D2, discrimination 2. For each discrimination session, only one out of the four holes of the apparatus was baited (hashed circles). […] One hour prior to acquisition and test phases, mice received a per os administration of the compounds or vehicle solution in a chamber placed in a room (room C) different from the one in which the behavioral experiments were conducted (room A). Subsequently, mice were submitted to the test phase in which they were repositioned on the floor of the first discrimination without any food pellet in the apparatus. b Two types of responses were calculated: (i) correct responses corresponding to head-dips into the hole baited at the acquisition of the first discrimination (D1), on the same floor context; (ii) interference responses corresponding to head-dips into the hole baited at the other (second) discrimination (D2). Both parameters allow calculation of the SCM score\nMice were partially food-deprived for 1 week prior to experimentation and were maintained on a 12 ± 2% loss of their body weight throughout behavioral testing to increase motivation for food reward. During the food deprivation phase, mice were handled daily to familiarize them with the experimenter.\nDuring the acquisition session, mice were first placed at the center of the board in a plastic tube for 15 s and then learned two successive spatial discriminations (D1 and D2) for 6 min each and were each separated by a 2-min interval. Between two sessions, each mouse was placed in its home cage in an animal housing room. For D1, ten 20-mg pellets were available only in one of the four holes in the board. For D2, ten 20-mg pellets were located in the opposite symmetrical hole. The environmental spatial cues remained at the same place for D1 and D2. Within each group, the floors used for the first and second discrimination (D1 and D2) were counterbalanced at the acquisition phase from one mouse to the other. A minimal amount of eight pellets should be eaten per mouse at either D1 or D2 during the acquisition phase.\nDuring memory testing, D1 and D2 discriminations were performed in independent groups of mice, being replaced either on the floor of D1 or of D2. The food-deprived mice were replaced either on the floor of D1 or on the floor of D2. In each case, mice were allowed to explore the apparatus freely and performance was assessed by measuring the exploration for each hole for 6 min without any pellets in the apparatus. During the procedure, photocells allowed measurement of the number of head dips in each hole. Different parameters were further calculated: % of correct responses (head-dips into the hole previously baited on the same floor context), % of interfering responses (head-dips into the hole previously baited on the other floor context), and % of errors (head-dips into the two holes never previously baited)."}, "mice": {"system": "mice", "assay": "Primary observation (Irwin) test", "settings": "donepezil alone", "description": "Male Rj: C57BL/6J mice (Elevage Janvier, 53940 Le Genest-Saint-Isle, France), 23–27 g body weight range, were stabilized for at least 5 days after delivery in macrolon cages in groups of 10 (housing period) (25 × 19 × 13 cm) and then of 4 (starting the day before the test and during the test) in macrolon cages (25 × 19 × 13 or 32 × 13 × 14 cm) on wood litter with free access to food and water.\nBetween one and three treated groups were compared with the same control at any one time. […] In order to keep the same conditions, all the mice receiving a single treatment also received another administration with vehicle.\nBehavioral modifications, physiological and neurotoxicity symptoms, and rectal temperature were recorded according to a standardized observation grid derived from that of Irwin. The grid contains the following items: death*, convulsions*, tremor*, Straub tail*, altered activity, excitation, jumping*, abnormal gait* (rolling, tip-toe), motor incoordination*, altered muscle tone, loss of grasping, akinesia, catalepsy, loss of traction, writhing*, piloerection*, stereotypies* (sniffing, chewing, head movements), head-twitches*, scratching*, altered respiration*, aggression*, altered fear, altered reactivity to touch, ptosis, exophthalmia, loss of righting reflex, loss of corneal reflex, analgesia, defecation/diarrhea, salivation, lacrimation, and rectal temperature (hypothermia/hyperthermia)."}}}
{"smiles": "COc1cc2c(cc1OC)C(=O)C(CC1CCN(Cc3ccccc3)CC1)C2", "note": "(centres unmarked) [Donepezil, reference compound]", "values": [{"measurement": "Activity in radial maze working memory task", "setting": "[1]; donepezil 0.3 mg/kg i.p.", "value": "limited to the organizational component of the task"}, {"measurement": "Active dose in the same working memory task", "setting": "[1]; donepezil", "value": "0.3 mg/kg but not of 1 mg/kg was found to be active"}, {"measurement": "Performance as a function of retention interval (RI 0–4) versus chance level", "setting": "[2]", "value": "remained significantly above chance up to RI = 3"}, {"measurement": "Alternation score, 3rd block of trials (trials 6 + 7)", "setting": "[3]", "value": "45.833 ± 4.167", "unit": "n = 12%"}, {"measurement": "Alternation score, seven first trials of the series", "setting": "[3]", "value": "alternated significantly above vehicles"}, {"measurement": "Total number of explorations and % exploration of the baited hole, acquisition phase", "setting": "[4]; Experiment 1 (study A and B), compounds alone, p> 0.10 in all analyses", "value": "No significant between-groups difference"}, {"measurement": "Memory performance in the second discrimination (D2)", "setting": "[4]; Experiment 1, S 47445 at all doses, donepezil at the active doses, versus middle-aged vehicle, data not shown", "value": "did not alter memory performance"}, {"measurement": "Total number of head-dips, test phase", "setting": "[4]; Experiment 1, versus vehicles (p > 0.10 in all comparisons), data not shown", "value": "no significant effect"}, {"measurement": "SCM score of the second discrimination (D2), dose effect at pooled levels of the other drug", "setting": "[4]; Supplemental data 2, S 47445 0.03–0.3 mg/kg p.o. (p=0.951), Donepezil 0.03 and 0.1 mg/kg (p=0.074)", "value": "no significant effect"}, {"measurement": "Post hoc analysis of donepezil effect on SCM score for all S 47445 levels (Dunnett, versus vehicle group)", "setting": "[4]; donepezil 0.03 mg/kg", "value": "NS (p = 0.079) (NS p > 0.050)"}, {"measurement": "Post hoc analysis of donepezil effect on SCM score for all S 47445 levels (Dunnett, versus vehicle group)", "setting": "[4]; donepezil 0.1 mg/kg", "value": "*** (***p ≤ 0.001)"}, {"measurement": "Symptoms observed in the Irwin test", "setting": "mice; 3 mg/kg p.o.", "value": "Tremor, hypothermia, and decreases in activity, abdominal muscle tone, and reactivity to touch"}, {"measurement": "Additional symptoms observed in the Irwin test", "setting": "mice; 10 mg/kg p.o.", "value": "Straub tail and abnormal gait (rolling)"}, {"measurement": "Observable effects in the Irwin test", "setting": "mice; dose range 3–10 mg/kg p.o., mice", "value": "clear and dose-dependent sedative/myorelaxant effects"}]}
